According to PMC7998760, “Solubility, Permeability, Anti-Inflammatory Action and In Vivo Pharmacokinetic Properties of Several Mechanochemically Obtained Pharmaceutical Solid Dispersions of Nimesulide” (Molecules, 2021):

Assays:
histamine edema = assay: Anti-inflammatory study, histamine edema model; type: in vivo, CD-1 mice; conditions: oral single administration, doses 5, 10, 20 mg/kg of NIM, p < 0.05 compare to control
Procedure: (§1) CD-1 mice weighing 20–25 g were obtained from the vivarium of the Institute of Cytology and Genetic SB RAS. Animals were kept under standard conditions with free access to water and food with humidity and temperature-controlled rooms with light and dark 12 h cycles.
“Histamine swelling” was reproduced by introducing of 0.05 mL of 0.1% histamine solution under aponeurosis of the hind paw. The test compounds were administered by oral gavage 1 h before administration of inflammatory agent. The swelling degree was evaluated after 5 h by comparison the legs mass with inflammatory agent (m1) and without it (m2). The degree of inflammation (ID) for each mouse was calculated by the following formula (Equation (6)): (6) ID=m1−m2/m2×100%
The statistical analysis was performed using Mann–Whitney U test. Data shown as Mean ± SEM. p < 0.05 was considered to be statistically significant.

[1] = alcohol solution, 400 nm
[2] = Procedure: In this study, the stability constant and stoichiometry of the complex were calculated using Benesi-Hildebrant diagram (Equation (1)):Δδmax/Δδ − 1 = 1/[CD]^n × 1/K(1) where K is the stability constant of the complex, and Δδ is change of chemical shift.
Measurement of K values at different temperatures at 30–50 °C allows us to calculate the thermodynamic parameters of the HP-β-CD complex. From the dependence of R × lnK vs. 1/T using formulas (Equation (2)) and (Equation (3)), one can calculate the main thermodynamic parameters of complexation: the change in the Gibbs energy, enthalpy, and entropy:R × lnK = −ΔH^0/T + ΔS^0(2) ΔG^0 = ΔH^0 − TΔS^0(3)
^1H-NMR spectra were recorded on an Avance III 500 MHz spectrometer (Bruker, Rheinstetten, Germany) in D2O and CD3OD (99.8%, Sigma-Aldrich, Moscow, Russia) solutions as well as in their mixture. Spin-spin relaxation time T2 was measured by the Carr-Purcell-Meiboom-Gill (CPMG) pulse sequence.

[3] = Pharmacokinetic study after a single per os administration; type: in vivo, CD-1 mice
Procedure: as §1
Mice were randomized by weight and divided into groups and deprived of food for 12 h prior to the experiment. […] Complexes were dissolved in distilled water. […] Blood samples were withdrawn after decapitation at 5, 15, 30, 45, 60, 90 120, 180 and 300 min (n = 5 for each time point) after introduction. Then, all the blood samples were centrifuged for 15 min at 1640× g and the supernatant serum fraction was transferred to empty tubes and kept frozen at −20 °C prior to analysis. The preparation of a blood sample was carried out according to the method described by. Briefly, the mouse plasma sample (0.2 mL) was transferred into glass test tube. 3 mL mixture solvent of ethyl acetate and hexane (90:10%, v/v) was added to the tubes and was vortexed for 3 min. Following a centrifugation for 7 min, 1.5 mL of organic phase was removed to another tube and evaporated. The dry residue was reconstituted with 100 μL of acetonitrile, vortexed for 30 s and 20 μL of the mixture was injected into the chromatograph. However, in contrast with noted reference we use HPLC conditions as described in HPLC analyses of this section.

[4] = CD-1, mouse, serum, oral, 20 mg/kg
[5] = single per os, NIM dose 20 mg/kg, mice

stability constant of the chelate complex with magnesium ions [1]: 22,300 ± 7400 M^−1
stability constant of the complex with HP-β-CD, cycle A ([2]; 30 °C, 1:1 complex): 140 M⁻¹
stability constant of the complex with HP-β-CD, cycle B ([2]; 30 °C, 1:1 complex): 490 M⁻¹
TΔS^0 of complexation with HP-β-CD, cycle A ([2]; 303 K): -6.7 ± 0.3 kcal/mol
TΔS^0 of complexation with HP-β-CD, cycle B ([2]; 303 K): -8.2 ± 0.5 kcal/mol
ΔG^0 of complexation with HP-β-CD, cycle B ([2]; 303 K): -3.0 kcal/mol
ΔH^0 of complexation with HP-β-CD, cycle A ([2]; 303 K): -10.5 ± 0.5 kcal/mol
ΔH^0 of complexation with HP-β-CD, cycle B ([2]; 303 K): -12.2 ± 1.0 kcal/mol
Tmax [3, 4]: 0.572 h
half-life [3, 4]: 1.48 ± 0.347 h
AUC 0-inf_obs [3, 5]: 3978.88 ± 242.62 mkg/mL*min
Cmax [3, 5]: 38.43 ± 3.25 mkg/mL
SMILES: CS(=O)(=O)Nc1ccc([N+](=O)[O-])cc1Oc1ccccc1 [NIM, N-(4-nitro-2-phenoxyphenyl)methanesulfonamide]
dose of NIM with significant anti-inflammatory effect (histamine edema): 20 mg/kg
